This is an account of results in US20240140999A1, “STABILIZED PEPTIDE-MEDIATED TARGETED PROTEIN DEGRADATION” (Dana-Farber Cancer Institute, Inc., priority 2017, published 2024).

Series [1] addresses T1, MCL-1 (Homo sapiens, UniProt Q07820).
T1 construct: monitoring of cellular MCL-1 levels by western blot of lysates; endogenous in cells; host or cells: A375P melanoma cells
The series can be described thus: MCL-1 levels by western blot in A375P melanoma cells. As to conditions: 10 μM, western blot over time. The format is cell-based. An excerpt:
BIM-C-terminal degron is #IWIAQELRXIGDXFNAYYARR% (SEQ ID NO: 134; #=N-term Ac; %=Lys-degron (see FIG. 3 for the structure of Lys-degron)).
A stapled peptide helix-degron chimeric peptide (FIG. 1) modeled after the pro-apoptotic BIM BH3 domain with an incorporated degron (e.g., Lys-degron, FIG. 2-4) was applied to A375P melanoma cells that express such anti-apoptotic BCL-2 family proteins as MCL-1, which promotes cancer cell survival and chemoresistance.
In general terms: In western blotting, separated proteins are transferred to a membrane and probed.

Series [2] addresses T2, Cop1 (Homo sapiens, UniProt Q8NHY2). The series is described as follows: Co-immunoprecipitation of Myc-tagged MDM2 p60 mutant constructs with Cop1 from 293T cells. The format is cell-based. Further details: Cop1-expressing human embryonic kidney 293T cells; endogenous in cells; host or cells: 293T (human embryonic kidney). An excerpt: Sequences: GFDVPD (SEQ ID NO:26); GFDAAD (SEQ ID NO:27); GNDVPD (SEQ ID NO:28); PQTVPD (SEQ ID NO:29); and DQIVPD (SEQ ID NO:30).
(§1) (1) Direct genetic modification: Replacement of natural protein residues in structurally disordered regions with derivatives of the sequence DQIVPEY (SEQ ID NO: 25) can cause the chimera proteins to be degraded by Cop1. For example, replacement of the C-terminal sequence GFDVPD (SEQ ID NO: 26) of the p60 isoform of the protein HDM2 with the Trib1-derived sequence DQIVPD (SEQ ID NO: 30) causes Cop1-mediated degradation of the mutant protein when exogenously expressed in Cop1-expressing human embryonic kidney 293T cells (FIG. 13).

Series [3] deals with T2, Cop1. The series can be described thus: Cop1-mediated degradation of Myc-tagged MDM2 p60 chimera constructs expressed in 293T cells. It counts as cell-based. Further details: Cop1-expressing human embryonic kidney 293T cells; endogenous in cells; host or cells: 293T (human embryonic kidney). As to conditions: native GFDVPD replaced by the sequence; Cop1-expressing 293T cells.
Source text: The native peptide sequence GFDVPD (SEQ ID NO: 26) within MDM2 is replaced by the sequences indicated (lane 3: SEQ ID NO:27; lane 4: SEQ ID NO:28; lane 5: SEQ ID NO:29; and lane 6: SEQ ID NO:30). […] Lower panel: Cop1 loading control.
as §1

Series [4] addresses T2, Cop1. As to conditions: reported value (Uljon et al.); read-out: binding affinity for Cop1; cited from earlier work.
Series [5] deals with SJSA-1 cells. The series is described as follows: Cell viability of SJSA-1 cells (Cell Titer Glo). It counts as cell-based. The conditions noted are these: thalidomide degron chimeras with distinct linkers, FIG. 12. On the procedure:
Certain compositions bearing different linkers show no cellular activity (right). Linker1-5 are as depicted in FIG. 5.
A stapled peptide degron chimera modeled after the transactivation domain helix of p53 (ATSP-7041) coupled to a thalidomide degron was applied to cultured cancer cells (SJSA-1, SJSA-X) and MDM2 protein levels were monitored by western blot and compared to that in cells treated with ATSP-7041 alone. The experiment was repeated and cell viability was measured by Cell Titer Glo assay. […] In addition, each of the stapled peptide degron chimeras impaired cancer cell viability in a dose-responsive fashion (FIG. 12). The composition of the linker influenced the presence (FIG. 12, left) or absence (FIG. 12, right) of biological activity.
In general terms: Cellular ATP, detected with luciferase, serves as a proxy for viable cell number.

“Also recorded” adds a separate entry of the source.

T2 sequence (Q8NHY2 whole entry, canonical isoform): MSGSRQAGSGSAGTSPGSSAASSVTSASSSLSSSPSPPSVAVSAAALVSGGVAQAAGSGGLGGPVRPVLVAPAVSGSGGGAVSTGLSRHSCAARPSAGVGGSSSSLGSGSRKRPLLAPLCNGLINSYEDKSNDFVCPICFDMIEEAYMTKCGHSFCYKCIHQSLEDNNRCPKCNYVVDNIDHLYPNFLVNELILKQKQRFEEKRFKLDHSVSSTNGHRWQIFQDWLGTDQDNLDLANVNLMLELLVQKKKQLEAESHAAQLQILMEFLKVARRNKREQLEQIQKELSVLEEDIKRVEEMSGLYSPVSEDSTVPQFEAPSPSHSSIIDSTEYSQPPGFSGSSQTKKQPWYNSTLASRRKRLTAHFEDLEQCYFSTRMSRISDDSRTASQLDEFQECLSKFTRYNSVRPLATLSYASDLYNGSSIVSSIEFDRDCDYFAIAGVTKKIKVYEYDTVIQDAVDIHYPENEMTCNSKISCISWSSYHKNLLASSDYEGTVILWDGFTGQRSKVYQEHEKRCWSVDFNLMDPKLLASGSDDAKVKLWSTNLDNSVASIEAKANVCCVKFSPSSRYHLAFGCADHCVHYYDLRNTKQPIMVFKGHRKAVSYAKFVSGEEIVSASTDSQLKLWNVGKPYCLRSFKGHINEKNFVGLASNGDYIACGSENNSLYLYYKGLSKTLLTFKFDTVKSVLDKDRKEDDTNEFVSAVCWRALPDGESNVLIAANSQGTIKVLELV

For the substance “#IWIAQELRXIGDXFNAYYARR% [BIM-C-terminal degron, stapled BIM BH3 peptide; #=N-term Ac; %=Lys-degron (thalidomide on C-terminal lysine side chain)]”, in series [1], the “cellular MCL-1 protein level” value is on record as “time-dependent decrease in MCL-1 protein; also recorded: induces the degradation of MCL-1”.

With DQIVPD, the “binding of the Myc-tagged MDM2 p60 mutant construct to Cop1” value in series [2] is “direct binding”. In addition, the “Cop1-mediated degradation of the MDM2 p60 chimera protein” value in series [3] was “causes destruction of the p60 chimera protein by the Cop1 protein”.

On to DQIVPEY, for which the Kd in series [4] is 250 ± 40 nM.

LTF8EYWAQLX%AA [5-L5]: the “cell viability / cytotoxic activity” value in series [5] is listed as “most potent cytotoxic activity”.
